In patent publication US6720331B2, “1-substituted 1,2,3,4-tetrahydro-β-carboline and 3,4-dihydro-β-carboline and analogs as antitumor agents” (National Sun Yat-sen University, priority 2001, dated 2004):
In brackets after ≈: the same amount, converted by molar mass. Read-outs that look alike come from different tables or passages of the source.

Columns and labels:
P-388 (murine leukemia) = test: Growth inhibition of tumor cell line P-388 (Table 1); type: cell-based; details: for IC50: Mus musculus, P388, 72 h, read-out: IC50, concentration inhibiting 50% of the growth of P-388
[1] = tested on: KB-16 (human nasopharyngeal carcinoma); test: Growth inhibition of tumor cell line KB-16 (Table 1); type: cell-based; details: for IC50: Homo sapiens, KB16, 72 h, read-out: IC50, concentration inhibiting 50% of the growth of KB-16
[2] = tested on: A-549 (human lung adenocarcinoma); test: Growth inhibition of tumor cell line A-549 (Table 1); type: cell-based; details: for IC50: Homo sapiens, A549, 144 h, read-out: IC50, concentration inhibiting 50% of the growth of A-549
[3] = tested on: HT-29 (human colon adenocarcinoma); test: Growth inhibition of tumor cell line HT-29 (Table 1); type: cell-based; details: for IC50: Homo sapiens, HT-29, 144 h, read-out: IC50, concentration inhibiting 50% of the growth of HT-29
murine P-388 cells = details: Sakai et al., J Am Chem Soc 1986; cited from earlier work
[4] = 3 day drug exposure, columns A/B = scaffold type
[5] = 6 day drug exposure, columns A/B = scaffold type

IC50 (P-388 (murine leukemia); [4])	IC50 [1, 4]	IC50 [2, 5]	IC50 [3, 5]	Molecule	also measured
				1-(3′-Nitro-4′-Benzo-1″,3″-dioxole)-3,4-dihydro-β-carboline [Compound 27]	IC50, concentration inhibiting 50% of the growth of P-388 (P-388 (murine leukemia); [4]): 0.3 mg/L; IC50, concentration inhibiting 50% of the growth of KB-16 [1, 4]: 0.8 mg/L; IC50, concentration inhibiting 50% of the growth of A-549 [2, 5]: 0.6 mg/L; IC50, concentration inhibiting 50% of the growth of HT-29 [3, 5]: 1.0 mg/L
				1-(2′-Fluorenyl)-3,4-dihydro-β-carboline [Compound 28]	IC50, concentration inhibiting 50% of the growth of P-388 (P-388 (murine leukemia); [4]): 0.1 mg/L; IC50, concentration inhibiting 50% of the growth of KB-16 [1, 4]: 1.4 mg/L; IC50, concentration inhibiting 50% of the growth of A-549 [2, 5]: 0.6 mg/L; IC50, concentration inhibiting 50% of the growth of HT-29 [3, 5]: 0.7 mg/L
				O=[N+]([O-])c1cc(C2NCCc3c2[nH]c2ccccc32)cc2c1OCO2 (stereo not drawn) [Compound 14, 1-(3′-Nitroz4′-Benzo-1″,3″-dioxole)-1,2,3,4-tetrahydro-β-carboline]	IC50, concentration inhibiting 50% of the growth of P-388 (P-388 (murine leukemia); [4]): 0.3 mg/L; IC50, concentration inhibiting 50% of the growth of KB-16 [1, 4]: 6.0 mg/L; IC50, concentration inhibiting 50% of the growth of A-549 [2, 5]: 1.7 mg/L; IC50, concentration inhibiting 50% of the growth of HT-29 [3, 5]: 1.4 mg/L
0.4 mg/L (≈ 1.31 µM)	1 mg/L (≈ 3.26 µM)	0.6 mg/L (≈ 1.96 µM)	0.6 mg/L (≈ 1.96 µM)	COc1cc(OC)cc(C2=NCCc3c2[nH]c2ccccc32)c1 [Compound 25, 1-(3′,5′-Dimethoxyphenyl)-3,4-dihydro-β-carboline]	
0.6 mg/L (≈ 1.95 µM)	0.7 mg/L (≈ 2.27 µM)	1.1 mg/L (≈ 3.57 µM)	1.1 mg/L (≈ 3.57 µM)	COc1ccc(C2NCCc3c2[nH]c2ccccc32)c(OC)c1 (stereo not drawn) [Compound 9, 1-(2′,4′-Dimethoxyphenyl)-1,2,3,4-tetrahydro-β-carboline]	
1.2 mg/L (≈ 3.57 µM)	1.4 mg/L (≈ 4.16 µM)	0.5 mg/L (≈ 1.49 µM)	0.7 mg/L (≈ 2.08 µM)	COc1cc(C2=NCCc3c2[nH]c2ccccc32)cc(OC)c1OC [Compound 26, 1-(3′,4′,5′-Trimethoxyphenyl)-3,4-dihydro-β-carboline]	
1 mg/L (≈ 3.06 µM)	2.1 mg/L (≈ 6.42 µM)	3 mg/L (≈ 9.17 µM)	1.1 mg/L (≈ 3.36 µM)	Brc1ccc(C2NCCc3c2[nH]c2ccccc32)cc1 (stereo not drawn) [Compound 5, 1-(4′-Bromophenyl)-1,2,3,4-tetrahydro-β-carboline]	
				O[C@]12C=C(c3nccc4c3[nH]c3ccccc34)[C@@H]3CCN(CCCC/C=C\CC1)C[C@@]31C[C@@H]3/C=C\CCCCN3[C@@H]12 [Compound 3, manzamine A, reference compound]	cytotoxicity against murine P-388 cells (murine P-388 cells): 0.07 µg/mL; IC50 (P-388 (murine leukemia)): 0.07 mg/L (≈ 0.128 µM); IC50 [1]: < 0.001 mg/L; IC50 [2]: 0.03 mg/L (≈ 0.0547 µM); IC50 [3]: 0.1 mg/L (≈ 0.182 µM)
				CCn1c2ccccc2c2cc(C3NCCc4c3[nH]c3ccccc43)ccc21 (stereo not drawn) [Compound 16, 1-(9′-Ethyl-3′-carbazole)-1,2,3,4-tetrahydro-β-carboline]	IC50, concentration inhibiting 50% of the growth of P-388 (P-388 (murine leukemia); [4]): 0.7 mg/L; IC50, concentration inhibiting 50% of the growth of KB-16 [1, 4]: 0.8 mg/L; IC50, concentration inhibiting 50% of the growth of A-549 [2, 5]: 0.8 mg/L; IC50, concentration inhibiting 50% of the growth of HT-29 [3, 5]: 0.5 mg/L
				CCN(CC)c1ccc(C2NCCc3c2[nH]c2ccccc32)cc1 (stereo not drawn) [Compound 8, 1-(4′-N-Diethylaminophenyl)-1,2,3,4-tetrahydro-β-carboline]	IC50, concentration inhibiting 50% of the growth of P-388 (P-388 (murine leukemia); [4]): 0.07 mg/L; IC50, concentration inhibiting 50% of the growth of KB-16 [1, 4]: 0.2 mg/L; IC50, concentration inhibiting 50% of the growth of A-549 [2, 5]: 1.1 mg/L; IC50, concentration inhibiting 50% of the growth of HT-29 [3, 5]: 1.1 mg/L
1.2 mg/L (≈ 3.55 µM)	8.3 mg/L (≈ 24.5 µM)	2 mg/L (≈ 5.91 µM)	1.6 mg/L (≈ 4.73 µM)	COc1cc(C2NCCc3c2[nH]c2ccccc32)cc(OC)c1OC (stereo not drawn) [Compound 13, 1-(3′,4′,5′-Trimethoxyphenyl)-1,2,3,4-tetrahydro-β-carboline]	
< 0.001 mg/L	< 0.001 mg/L	< 0.001 mg/L	< 0.001 mg/L	CC(=O)O[C@H]1C(=O)[C@@]2(C)[C@H]([C@H](OC(=O)c3ccccc3)[C@]3(O)C[C@H](OC(=O)[C@H](O)[C@@H](NC(=O)c4ccccc4)c4ccccc4)C(C)=C1C3(C)C)[C@]1(OC(C)=O)CO[C@@H]1C[C@@H]2O [Compound 30, paclitaxel, reference compound]	
2.6 mg/L (≈ 8.43 µM)	3.7 mg/L (≈ 12 µM)	2 mg/L (≈ 6.49 µM)	2.2 mg/L (≈ 7.13 µM)	COc1ccc(OC)c(C2NCCc3c2[nH]c2ccccc32)c1 (stereo not drawn) [Compound 11, 1-(2′,5′-Dimethoxyphenyl)-1,2,3,4-tetrahydro-β-carboline]	
2.8 mg/L (≈ 9.08 µM)	> 50 mg/L	> 50 mg/L	> 50 mg/L	COc1ccc(C2NCCc3c2[nH]c2ccccc32)cc1OC (stereo not drawn) [Compound 10, 1-(3′,4′-Dimethoxyphenyl)-1,2,3,4-tetrahydro-β-carboline]	
2.2 mg/L (≈ 7.55 µM)	1.7 mg/L (≈ 5.83 µM)	1.6 mg/L (≈ 5.49 µM)	0.7 mg/L (≈ 2.4 µM)	CN(C)c1ccc(C2NCCc3c2[nH]c2ccccc32)cc1 (stereo not drawn) [Compound 7, 1-(4′-Dimethylaminophenyl)-1,2,3,4-tetrahydro-β-carboline]	
				c1ccc2c(c1)Cc1cc(C3NCCc4c3[nH]c3ccccc43)ccc1-2 (stereo not drawn) [Compound 15, 1-(2′-Fluorenyl)-1,2,3,4-tetrahydro-β-carboline]	IC50, concentration inhibiting 50% of the growth of P-388 (P-388 (murine leukemia); [4]): 0.1 mg/L; IC50, concentration inhibiting 50% of the growth of KB-16 [1, 4]: 0.4 mg/L; IC50, concentration inhibiting 50% of the growth of A-549 [2, 5]: 0.6 mg/L; IC50, concentration inhibiting 50% of the growth of HT-29 [3, 5]: 0.5 mg/L
0.2 mg/L (≈ 0.649 µM)	1.4 mg/L (≈ 4.54 µM)	0.6 mg/L (≈ 1.95 µM)	0.4 mg/L (≈ 1.3 µM)	COc1cc(OC)cc(C2NCCc3c2[nH]c2ccccc32)c1 (stereo not drawn) [Compound 12, 1-(3′,5′-Dimethoxyphenyl)-1,2,3,4-tetrahydro-β-carboline]	
0.7 mg/L (≈ 2.21 µM)	0.3 mg/L (≈ 0.945 µM)	1.8 mg/L (≈ 5.67 µM)	1.3 mg/L (≈ 4.1 µM)	CCN(CC)c1ccc(C2=NCCc3c2[nH]c2ccccc32)cc1 [Compound 21, 1-(4′-Diethylaminophenyl)-3,4-dihydro-β-carboline]	

Molecule	IC50 (P-388 (murine leukemia); [4])	IC50 [1, 4]	IC50 [2, 5]	IC50 [3, 5]	also measured
Clc1ccc(C2NCCc3c2[nH]c2ccccc32)cc1 (stereo not drawn) [Compound 4, 1-(4′-Chlorophenyl)-1,2,3,4-tetrahydro-β-carboline]	0.2 mg/L (≈ 0.707 µM)	0.7 mg/L (≈ 2.48 µM)	0.6 mg/L (≈ 2.12 µM)	0.9 mg/L (≈ 3.18 µM)	
COc1ccc(OC)c(C2=NCCc3c2[nH]c2ccccc32)c1 [Compound 24, 1-(2′,5′-Dimethoxyphenyl)-3,4-dihydro-β-carboline]	1.1 mg/L (≈ 3.59 µM)	0.7 mg/L (≈ 2.28 µM)	0.2 mg/L (≈ 0.653 µM)	0.4 mg/L (≈ 1.31 µM)	
COc1ccc(C2=NCCc3c2[nH]c2ccccc32)c(OC)c1 [Compound 22, 1-(2′,4′-Dimethoxyphenyl)-3,4-dihydro-β-carboline]	0.6 mg/L (≈ 1.96 µM)	2.7 mg/L (≈ 8.81 µM)	0.5 mg/L (≈ 1.63 µM)	0.5 mg/L (≈ 1.63 µM)	
CN(C)c1ccc(C2=NCCc3c2[nH]c2ccccc32)cc1 [Compound 20, 1-(4′-Dimethylaminophenyl)-3,4-dihydro-β-carboline]	2.9 mg/L (≈ 10 µM)	4.8 mg/L (≈ 16.6 µM)	50 mg/L (≈ 173 µM)	3 mg/L (≈ 10.4 µM)	
O=[N+]([O-])c1ccc(C2NCCc3c2[nH]c2ccccc32)cc1 (stereo not drawn) [Compound 6, 1-(4′-Nitrophenyl)-1,2,3,4-tetrahydro-β-carboline]	0.8 mg/L (≈ 2.73 µM)	1.1 mg/L (≈ 3.75 µM)	0.9 mg/L (≈ 3.07 µM)	1.5 mg/L (≈ 5.11 µM)	
COc1ccc(C2=NCCc3c2[nH]c2ccccc32)cc1OC [Compound 23, 1-(3′,4′-Dimethoxyphenyl)-3,4-dihydro-β-carboline]	2.7 mg/L (≈ 8.81 µM)	15 mg/L (≈ 49 µM)	12 mg/L (≈ 39.2 µM)	2.7 mg/L (≈ 8.81 µM)	
